Measured values reported in publication PMC9516332 (Frontiers in Oncology, 2022).
Like-named read-outs stand apart in the source and are kept apart here.

Assays:
AP-1060 (ETV6-NTRK3) = assay: Cell viability assay; conditions: read-out: IC50 in cell proliferation assay
134 cancer cell lines = assay: Cell viability assay (ATPlite, 72 hours), IC50 on cancer cell line panel

SMILES: CN1CCN(c2ccc(C(=O)Nc3n[nH]c4ccc(Cc5cc(F)cc(F)c5)cc34)c(NC3CCOCC3)c2)CC1 [entrectinib]
- IC50 (AP-1060 (ETV6-NTRK3)): 0.035 µM
- IC50 (134 cancer cell lines; HEC-6, read-out: IC50 in cell proliferation assay, HEC-6 cell line (EGFR p.A289V)): 6.83 µM
- IC50 (134 cancer cell lines; Homo sapiens, 769-P, read-out: IC50 in cell proliferation assay, cell line 769-P): 6.69 µM
- IC50 (134 cancer cell lines; Homo sapiens, 786-0, read-out: IC50 in cell proliferation assay, cell line 786-O): 5.12 µM
- IC50 (134 cancer cell lines; Homo sapiens, A 172, read-out: IC50 in cell proliferation assay, cell line A-172): 4.96 µM
- IC50 (134 cancer cell lines; Homo sapiens, A204, read-out: IC50 in cell proliferation assay, cell line A-204): 5.98 µM
- IC50 (134 cancer cell lines; Homo sapiens, A498, read-out: IC50 in cell proliferation assay, cell line A-498): 7.97 µM
- IC50 (134 cancer cell lines; Homo sapiens, A549, read-out: IC50 in cell proliferation assay, cell line A-549): 8.78 µM
- IC50 (134 cancer cell lines; Homo sapiens, A704, read-out: IC50 in cell proliferation assay, cell line A-704): 6.87 µM
- IC50 (134 cancer cell lines; Homo sapiens, A-375, read-out: IC50 in cell proliferation assay, cell line A-375 (BRAF p.V600E)): 5.84 µM
- IC50 (134 cancer cell lines; Homo sapiens, A-427, read-out: IC50 in cell proliferation assay, cell line A-427): 3.49 µM
- IC50 (134 cancer cell lines; Homo sapiens, ACHN, read-out: IC50 in cell proliferation assay, cell line ACHN): 5.79 µM
- IC50 (134 cancer cell lines; Homo sapiens, AN3-CA, read-out: IC50 in cell proliferation assay, cell line AN3-CA (FGFR2 p.N549K)): 3.78 µM
- IC50 (134 cancer cell lines; Homo sapiens, ASPC1, read-out: IC50 in cell proliferation assay, cell line AsPC-1): 7.99 µM
- IC50 (134 cancer cell lines; Homo sapiens, AU565, read-out: IC50 in cell proliferation assay, cell line AU565 (ERBB2 amplification)): 8.63 µM
- IC50 (134 cancer cell lines; Homo sapiens, BT-20, read-out: IC50 in cell proliferation assay, cell line BT-20): 10.7 µM
- IC50 (134 cancer cell lines; Homo sapiens, BT-474, read-out: IC50 in cell proliferation assay, cell line BT-474 (ERBB2 amplification)): 6.15 µM
- IC50 (134 cancer cell lines; Homo sapiens, BT-549, read-out: IC50 in cell proliferation assay, cell line BT-549): 7.41 µM
- IC50 (134 cancer cell lines; Homo sapiens, BXPC-3, read-out: IC50 in cell proliferation assay, cell line BxPC-3): 6.09 µM
- IC50 (134 cancer cell lines; Homo sapiens, C-33-A, read-out: IC50 in cell proliferation assay, cell line C-33 A): 5.23 µM
- IC50 (134 cancer cell lines; Homo sapiens, CAL-27, read-out: IC50 in cell proliferation assay, cell line CAL-27): 5.15 µM
- IC50 (134 cancer cell lines; Homo sapiens, CCF-STTG1, read-out: IC50 in cell proliferation assay, cell line CCF-STTG1): 10.7 µM
- IC50 (134 cancer cell lines; Homo sapiens, CCRF-CEM, read-out: IC50 in cell proliferation assay, cell line CCRF-CEM): 9.03 µM
- IC50 (134 cancer cell lines; Homo sapiens, COLO 205, read-out: IC50 in cell proliferation assay, cell line COLO 205 (BRAF p.V600E)): 7.72 µM
- IC50 (134 cancer cell lines; Homo sapiens, COLO-829, read-out: IC50 in cell proliferation assay, cell line COLO 829 (BRAF p.V600E)): 8.95 µM
- IC50 (134 cancer cell lines; Homo sapiens, DLD-1, read-out: IC50 in cell proliferation assay, cell line DLD-1): 10.5 µM
- IC50 (134 cancer cell lines; Homo sapiens, DU-4475, read-out: IC50 in cell proliferation assay, cell line DU4475 (BRAF p.V600E)): 8.22 µM
- IC50 (134 cancer cell lines; Homo sapiens, Daoy, read-out: IC50 in cell proliferation assay, cell line Daoy): 5.1 µM
- IC50 (134 cancer cell lines; Homo sapiens, DoTc2-4510, read-out: IC50 in cell proliferation assay, cell line DoTc2 4510): 4.69 µM
- IC50 (134 cancer cell lines; Homo sapiens, EOL1, read-out: IC50 in cell proliferation assay, cell line EoL-1 (FIP1L1-PDGFRA)): 0.512 µM
- IC50 (134 cancer cell lines; Homo sapiens, FaDu, read-out: IC50 in cell proliferation assay, cell line FaDu): 5.64 µM
- IC50 (134 cancer cell lines; Homo sapiens, G-361, read-out: IC50 in cell proliferation assay, cell line G-361 (BRAF p.V600E)): 4.67 µM
- IC50 (134 cancer cell lines; Homo sapiens, HCC827, read-out: IC50 in cell proliferation assay, cell line HCC827 (EGFR exon19del)): 2.98 µM
- IC50 (134 cancer cell lines; Homo sapiens, HCC4006, read-out: IC50 in cell proliferation assay, cell line HCC4006 (EGFR exon19del)): 4.96 µM
- IC50 (134 cancer cell lines; Homo sapiens, HCT-15, read-out: IC50 in cell proliferation assay, cell line HCT 15): 7.64 µM
- IC50 (134 cancer cell lines; Homo sapiens, HCT-116, read-out: IC50 in cell proliferation assay, cell line HCT 116): 4.66 µM
- IC50 (134 cancer cell lines; Homo sapiens, HEC-1, read-out: IC50 in cell proliferation assay, HEC-1 cell line): 3.73 µM
- IC50 (134 cancer cell lines; Homo sapiens, HEC-1B, read-out: IC50 in cell proliferation assay, HEC-1-B cell line (EGFR p.A864V)): 2.24 µM
- IC50 (134 cancer cell lines; Homo sapiens, HL-60, read-out: IC50 in cell proliferation assay, HL-60 cell line): 5.68 µM
- IC50 (134 cancer cell lines; Homo sapiens, HT, read-out: IC50 in cell proliferation assay, HT cell line): 12 µM
- IC50 (134 cancer cell lines; Homo sapiens, HT-1080, read-out: IC50 in cell proliferation assay, HT-1080 cell line): 7.36 µM
- IC50 (134 cancer cell lines; Homo sapiens, Hs746T, read-out: IC50 in cell proliferation assay, Hs 746.T cell line (MET exon14skip + amplification)): 10.9 µM
- IC50 (134 cancer cell lines; Homo sapiens, Hs-578T, read-out: IC50 in cell proliferation assay, Hs 578T cell line): 7.05 µM
- IC50 (134 cancer cell lines; Homo sapiens, HuTu80, read-out: IC50 in cell proliferation assay, HuTu 80 cell line): 3.57 µM
- IC50 (134 cancer cell lines; Homo sapiens, J82, read-out: IC50 in cell proliferation assay, J82 cell line): 7.16 µM
- IC50 (134 cancer cell lines; Homo sapiens, Jurkat E6.1, read-out: IC50 in cell proliferation assay, Jurkat E6.1 cell line): 8.24 µM
- IC50 (134 cancer cell lines; Homo sapiens, K562, read-out: IC50 in cell proliferation assay, K-562 cell line): 5.82 µM
- IC50 (134 cancer cell lines; Homo sapiens, KATO III, read-out: IC50 in cell proliferation assay, KATO III cell line (FGFR2 amplification)): 1.43 µM
- IC50 (134 cancer cell lines; Homo sapiens, KG-1, read-out: IC50 in cell proliferation assay, KG-1 cell line (FGFR1OP2-FGFR1)): 1.53 µM
- IC50 (134 cancer cell lines; Homo sapiens, KLE, read-out: IC50 in cell proliferation assay, KLE cell line): 4.33 µM
- IC50 (134 cancer cell lines; Homo sapiens, KMS-11, read-out: IC50 in cell proliferation assay, KMS-11 cell line (FGFR3 p.Y373C)): 4.82 µM
- IC50 (134 cancer cell lines; Homo sapiens, KU812, read-out: IC50 in cell proliferation assay, Ku812 cell line): 4.72 µM
- IC50 (134 cancer cell lines; Homo sapiens, Kasumi 1, read-out: IC50 in cell proliferation assay, Kasumi-1 cell line (KIT p.N822K)): 3.68 µM
- IC50 (134 cancer cell lines; Homo sapiens, LC-2-ad, read-out: IC50 in cell proliferation assay, LC-2/ad cell line (CCDC6-RET)): 1.81 µM
- IC50 (134 cancer cell lines; Homo sapiens, LNCaP-Clone-FGC, read-out: IC50 in cell proliferation assay, LNCaP clone FGC cell line): 10.9 µM
- IC50 (134 cancer cell lines; Homo sapiens, LS174T, read-out: IC50 in cell proliferation assay, LS174T cell line): 4.9 µM
- IC50 (134 cancer cell lines; Homo sapiens, LS-411N, read-out: IC50 in cell proliferation assay, LS411N cell line (BRAF p.V600E)): 9.55 µM
- IC50 (134 cancer cell lines; Homo sapiens, LoVo, read-out: IC50 in cell proliferation assay, LoVo cell line): 9.52 µM
- IC50 (134 cancer cell lines; Homo sapiens, MCF7, read-out: IC50 in cell proliferation assay, MCF-7 cell line): 3.83 µM
- IC50 (134 cancer cell lines; Homo sapiens, MDA-MB-231, read-out: IC50 in cell proliferation assay, MDA-MB-231 cell line): 4.59 µM
- IC50 (134 cancer cell lines; Homo sapiens, MDA-MB-453, read-out: IC50 in cell proliferation assay, MDA-MB-453 cell line): 11.5 µM
- IC50 (134 cancer cell lines; Homo sapiens, MDA-MB-468, read-out: IC50 in cell proliferation assay, MDA-MB-468 cell line): 11 µM
- IC50 (134 cancer cell lines; Homo sapiens, MG-63, read-out: IC50 in cell proliferation assay, MG-63 cell line): 3.8 µM
- IC50 (134 cancer cell lines; Homo sapiens, MIA PaCa-2, read-out: IC50 in cell proliferation assay, MIA PaCa-2 cell line): 5.16 µM
- IC50 (134 cancer cell lines; Homo sapiens, MKN-45, read-out: IC50 in cell proliferation assay, MKN45 cell line (MET amplification)): 11.8 µM
- IC50 (134 cancer cell lines; Homo sapiens, MOLM-13, read-out: IC50 in cell proliferation assay, MOLM-13 cell line (FLT3 ITD)): 0.214 µM
- IC50 (134 cancer cell lines; Homo sapiens, MOLT-4, read-out: IC50 in cell proliferation assay, MOLT-4 cell line): 11.3 µM
